Source: patent US20130101615A1, “METHODS FOR PREVENTING OR TREATING A DISEASE OR CONDITION ASSOCIATED WITH MYCOBACTERIUM AVIUM SUBSPECIES PARATUBERCULOSIS” (priority 2005, published 2013)
Where “and” joins values, the source holds several entries; their conditions need not be identical. Identical values can stand only once. Entries after “also recorded” stand apart in the source; their conditions may differ. Like-named read-outs stand apart in the source and are kept apart here.

How the values were obtained:
MAP = experiment: Growth inhibition of MAP (strain not stated or MAP strains in general); details: for %−ΔcGI (percent decrease in cumulative GI): Example 3, strain not stated; for effect on growth of MAP, in words: MAP strains in general
[1] = system: MAP Dominic (ATCC 43545), isolated from human with Crohn's disease; type: cell-based, Mycobacterium avium subspecies paratuberculosis; details: for %−ΔcGI (percent decrease in cumulative GI): MAP Dominic; for % ΔcGI: vs 3.2% DMSO control
MAP ATCC 19698 (bovine) = type: cell-based, Mycobacterium avium subspecies paratuberculosis; details: for % ΔcGI: Bovine MAP 19698, vs 3.2% DMSO control; for %-ΔcGI: Example 5
M. avium ATCC 25291 = type: cell-based, M. avium subspecies avium; details: for effect on growth, in words / %-ΔcGI: M. avium ATCC 25291; for % ΔcGI: M. avium 25291, vs 3.2% DMSO control; for %-ΔcGI: Example 5
M. avium 101 = type: cell-based, M. avium subspecies avium; details: for % ΔcGI: vs 3.2% DMSO control; for %-ΔcGI: Example 5
[2] = system: MAP UCF 4, isolated from human with Crohn's disease; experiment: Radiometric BACTEC growth inhibition, MAP UCF4; type: cell-based, Mycobacterium avium subspecies paratuberculosis; details: for % ΔcGI: Human MAP UCF4, vs 3.2% DMSO control
[3] = system: MAP 303 (ruminant with Johne's disease); experiment: Radiometric BACTEC growth inhibition, MAP 303; type: cell-based, Mycobacterium avium subspecies paratuberculosis; details: Bovine MAP 303, vs 3.2% DMSO control
[4] = 1 μg/ml, Human MAP Dominic Expt. 1
[5] = 1 μg/ml, Human MAP Dominic Expt. 2
[6] = 4 μg/ml, Human MAP Dominic Expt. 1
[7] = 4 μg/ml, Human MAP Dominic Expt. 2
[8] = 16 μg/ml, Human MAP Dominic Expt. 1
[9] = 16 μg/ml, Human MAP Dominic Expt. 2
[10] = 64 μg/ml, Human MAP Dominic Expt. 1
[11] = 64 μg/ml, Human MAP Dominic Expt. 2

Sc1ncnc2nc[nH]c12 [6-MP, 6-mercaptopurine] was tested, and the “%−ΔcGI (percent decrease in cumulative GI)” value (MAP; 1 μg/ml) was no less than 43%, the “%−ΔcGI (percent decrease in cumulative GI)” value (MAP; 4 μg/ml) was no less than 84% and the “effect on growth of MAP, in words” value (MAP) was “inhibit the growth kinetics of MAP”. The “%−ΔcGI (percent decrease in cumulative GI)” value ([1]; 4 μg/ml, Example 3) was 41%, the “%−ΔcGI (percent decrease in cumulative GI)” value (MAP ATCC 19698 (bovine); 4 μg/ml, MAP 19698, Example 3) was ~80% and 84% and the “effect on growth, in words” value (M. avium ATCC 25291) was “less susceptibility to 6-MP than to methotrexate”. For the same molecule, the “effect on growth, in words” value (M. avium 101) was “less susceptibility to 6-MP than to methotrexate”.
CC(C)/N=c1\cc2n(-c3ccc(Cl)cc3)c3ccccc3nc-2cc1Nc1ccc(Cl)cc1 [Clofazimine, clofazimine] was tested, and the “% ΔcGI” value [1, 4] was −99%, the “% ΔcGI” value [1, 5] was −99% and the “% ΔcGI” value [1, 6] was −99%. The “% ΔcGI” value [1, 7] was −99%, the “% ΔcGI” value [1, 8] was −99% and the “% ΔcGI” value [1, 9] was −99%. For the same molecule, the “% ΔcGI” value [1, 10] was −99%, the “% ΔcGI” value [1, 11] was −99% and the “%−ΔcGI (percent decrease in cumulative GI)” value ([1]; at 0.5 (concentration unit not given)) was 97%. For the same molecule, the “% ΔcGI” value (MAP ATCC 19698 (bovine); 1 μg/ml) was −99%, the “% ΔcGI” value (MAP ATCC 19698 (bovine); 4 μg/ml) was −99% and the “% ΔcGI” value (MAP ATCC 19698 (bovine); 16 μg/ml) was −99%. The “% ΔcGI” value (MAP ATCC 19698 (bovine); 64 μg/ml) was −99%, the “% ΔcGI” value ([2]; 1 μg/ml) was −99% and the “% ΔcGI” value ([2]; 4 μg/ml) was −99%. For the same molecule, the “% ΔcGI” value ([2]; 16 μg/ml) was −99%, the “% ΔcGI” value ([2]; 64 μg/ml) was −99% and the “% ΔcGI” value ([3]; 1 μg/ml) was −99%. The “% ΔcGI” value ([3]; 4 μg/ml) was −99%, the “% ΔcGI” value ([3]; 16 μg/ml) was −99% and the “% ΔcGI” value ([3]; 64 μg/ml) was −99%. For the same molecule, the “% ΔcGI” value (M. avium ATCC 25291; 1 μg/ml) was −98%, the “% ΔcGI” value (M. avium ATCC 25291; 4 μg/ml) was −98% and the “% ΔcGI” value (M. avium ATCC 25291; 16 μg/ml) was −98%. For the same molecule, the “% ΔcGI” value (M. avium ATCC 25291; 64 μg/ml) was −99%, the “% ΔcGI” value (M. avium 101; 1 μg/ml) was −98% and the “% ΔcGI” value (M. avium 101; 4 μg/ml) was −98%. For the same molecule, the “% ΔcGI” value (M. avium 101; 16 μg/ml) was −98% and the “% ΔcGI” value (M. avium 101; 64 μg/ml) was −99%.
For O=C1CCCC(=O)N1O [HPD], the “effect on growth of MAP, in words” value (MAP) was “the most potent inhibitory agent evaluated; also recorded: inhibits the growth of MAP”, the “%-ΔcGI” value ([1]; 1 μg/ml, MAP Dominic Expt A, Example 5) was −5% and the “%-ΔcGI” value ([1]; 1 μg/ml, MAP Dominic Expt B, Example 5) was 16%. For the same molecule, the “%-ΔcGI” value ([1]; 4 μg/ml, MAP Dominic Expt A, Example 5) was −7%, the “%-ΔcGI” value ([1]; 4 μg/ml, MAP Dominic Expt B, Example 5) was 6% and the “%-ΔcGI” value ([1]; 16 μg/ml, MAP Dominic Expt A, Example 5) was −18%. The “%-ΔcGI” value ([1]; 16 μg/ml, MAP Dominic Expt B, Example 5) was 12%, the “%−ΔcGI (percent decrease in cumulative GI)” value ([1]; 64 μg/ml) was 46% and the “%-ΔcGI” value ([1]; 64 μg/ml, MAP Dominic Expt A, Example 5) was −46%. For the same molecule, the “%-ΔcGI” value ([1]; 64 μg/ml, MAP Dominic Expt B, Example 5) was −19%, the “%-ΔcGI” value (MAP ATCC 19698 (bovine); 1 μg/ml, MAP ATCC 19698) was 22% and the “%-ΔcGI” value (MAP ATCC 19698 (bovine); 4 μg/ml, MAP ATCC 19698) was 7%. The “%-ΔcGI” value (MAP ATCC 19698 (bovine); 16 μg/ml, MAP ATCC 19698) was −3%, the “%−ΔcGI (percent decrease in cumulative GI)” value (MAP ATCC 19698 (bovine); 64 μg/ml, MAP ATCC 19698) was −44% and the “%-ΔcGI” value (MAP ATCC 19698 (bovine); 64 μg/ml, MAP ATCC 19698) was −44%. The “%-ΔcGI” value (M. avium ATCC 25291; 1 μg/ml) was −4%, the “%-ΔcGI” value (M. avium ATCC 25291; 4 μg/ml) was 47% and the “%-ΔcGI” value (M. avium ATCC 25291; 16 μg/ml) was 22%. For the same molecule, the “%-ΔcGI” value (M. avium ATCC 25291; 64 μg/ml) was 21%, the “effect on growth, in words” value (M. avium ATCC 25291) was “no dose-dependent inhibition” and the “effect on growth, in words” value (M. avium 101) was “no dose-dependent inhibition”. The “%-ΔcGI” value (M. avium 101; 1 μg/ml) was −12%, the “%-ΔcGI” value (M. avium 101; 4 μg/ml) was −52% and the “%-ΔcGI” value (M. avium 101; 16 μg/ml) was −21%. The “%-ΔcGI” value (M. avium 101; 64 μg/ml) was −36%.
With CO[C@H]1C[C@@H]2CC[C@@H](C)[C@@](O)(O2)C(=O)C(=O)N2CCCC[C@H]2C(=O)O[C@H]([C@H](C)C[C@@H]2CC[C@@H](O)[C@H](OC)C2)CC(=O)[C@H](C)/C=C(\C)[C@@H](O)[C@@H](OC)C(=O)[C@H](C)C[C@H](C)/C=C/C=C/C=C/1C [Rapamycin, sirolimus (rapamycin)] the “% ΔcGI” value [1, 4] was 21%, the “% ΔcGI” value [1, 5] was 0% and the “% ΔcGI” value [1, 6] was 13%. For the same molecule, the “% ΔcGI” value [1, 7] was −7%, the “% ΔcGI” value [1, 8] was −10% and the “% ΔcGI” value [1, 9] was −9%. The “% ΔcGI” value [1, 10] was −58%, the “% ΔcGI” value [1, 11] was −44% and the “% ΔcGI” value (MAP ATCC 19698 (bovine); 1 μg/ml) was −3%. For the same molecule, the “% ΔcGI” value (MAP ATCC 19698 (bovine); 4 μg/ml) was −1%, the “% ΔcGI” value (MAP ATCC 19698 (bovine); 16 μg/ml) was −18% and the “% ΔcGI” value (MAP ATCC 19698 (bovine); 64 μg/ml) was −43%. The “% ΔcGI” value ([2]; 1 μg/ml) was −14%, the “% ΔcGI” value ([2]; 4 μg/ml) was −9% and the “% ΔcGI” value ([2]; 16 μg/ml) was −29%. For the same molecule, the “% ΔcGI” value ([2]; 64 μg/ml) was −76%, the “%−ΔcGI (percent decrease in cumulative GI)” value ([2]; 64 μg/ml, MAP UCF 4) was 76% and the “inhibition, in words” value ([2]; lower concentrations (1 and 16 μg/ml), MAP UCF 4) was “no inhibition”. For the same molecule, the “% ΔcGI” value ([3]; 1 μg/ml) was 4%, the “% ΔcGI” value ([3]; 4 μg/ml) was −11% and the “% ΔcGI” value ([3]; 16 μg/ml) was −15%. The “% ΔcGI” value ([3]; 64 μg/ml) was −39%, the “% ΔcGI” value (M. avium ATCC 25291; 1 μg/ml) was 10% and the “% ΔcGI” value (M. avium ATCC 25291; 4 μg/ml) was 7%. For the same molecule, the “% ΔcGI” value (M. avium ATCC 25291; 16 μg/ml) was 11%, the “% ΔcGI” value (M. avium ATCC 25291; 64 μg/ml) was −18% and the “effect on growth, in words” value (M. avium ATCC 25291) was “no inhibition; also recorded: no effect”. The “% ΔcGI” value (M. avium 101; 1 μg/ml) was −19%, the “% ΔcGI” value (M. avium 101; 4 μg/ml) was −7% and the “% ΔcGI” value (M. avium 101; 16 μg/ml) was −28%. The “% ΔcGI” value (M. avium 101; 64 μg/ml) was −39%.
With O=C1CCC(N2C(=O)c3ccccc3C2=O)C(=O)N1 (stereo not drawn) [Thalidomide (+), thalidomide] the “effect on growth of MAP, in words” value (MAP) was “more inhibitory than thalidomide (−)”, the “%-ΔcGI” value ([1]; 1 μg/ml, MAP (Dominic), Table 4) was −4% and the “%-ΔcGI” value ([1]; 4 μg/ml, MAP (Dominic), Table 4) was 1%. For the same molecule, the “%-ΔcGI” value ([1]; 16 μg/ml, MAP (Dominic), Table 4) was −14%, the “%-ΔcGI” value ([1]; 64 μg/ml, MAP (Dominic), Table 4) was −58% and the “%-ΔcGI” value (M. avium 101; 1 μg/ml) was 4%. For the same molecule, the “%-ΔcGI” value (M. avium 101; 4 μg/ml) was −5%, the “%-ΔcGI” value (M. avium 101; 16 μg/ml) was 16% and the “%-ΔcGI” value (M. avium 101; 64 μg/ml) was −19%.
For CC1(C)S[C@@H]2[C@H](NC(=O)[C@H](N)c3ccccc3)C(=O)N2[C@H]1C(=O)O [ampicillin], the “%−ΔcGI (percent decrease in cumulative GI)” value (MAP; 32 μg/ml) was 21%.
CC[C@H]1OC(=O)[C@H](C)[C@@H](O[C@H]2C[C@@](C)(OC)[C@@H](O)[C@H](C)O2)[C@H](C)[C@@H](O[C@@H]2O[C@H](C)C[C@H](N(C)C)[C@H]2O)[C@](C)(OC)C[C@@H](C)C(=O)[C@H](C)[C@@H](O)[C@]1(C)O [clarithromycin] was tested, and the “%−ΔcGI (percent decrease in cumulative GI)” value (MAP; 0.5 μg/ml) was no less than 86%, the “%−ΔcGI (percent decrease in cumulative GI)” value (MAP ATCC 19698 (bovine); 4 μg/ml, MAP 19698, Example 3) was roughly 80% and the “effect on growth, in words” value (M. avium ATCC 25291) was “no evidence of growth”.
With CN(Cc1cnc2nc(N)nc(N)c2n1)c1ccc(C(=O)N[C@@H](CCC(=O)O)C(=O)O)cc1 [methotrexate] the “%−ΔcGI (percent decrease in cumulative GI)” value (MAP; 2 μg/ml) was 40%, the “%−ΔcGI (percent decrease in cumulative GI)” value (MAP; 4 μg/ml) was no less than 75% and the “effect on growth of MAP, in words” value (MAP) was “inhibit the growth kinetics of MAP”.
